Assays:
[1] = system: A549; assay: In vitro cytotoxicity in human tumor lung carcinoma A-549 cell lines; type: functional
[2] = system: MCF7; assay: In vitro cytotoxicity in human tumor breast carcinoma MCF-7 cell lines; type: functional
[3] = system: Malme-3M; assay: In vitro cytotoxicity in human tumor melanoma MALME-3M cell lines; type: functional
[4] = system: Mus musculus; assay: In vivo inhibitory activity against HT-29 colon cells at maximally tolerated dose(MTD) of 3 mg/kg in mice; type: functional
[5] = system: Mus musculus; assay: In vivo inhibitory activity against HT-29 colon cells at maximally tolerated dose(MTD) of 10 mg/kg in mice; type: functional
[6] = system: SK-MEL-5; assay: In vitro cytotoxicity in human tumor melanoma SK-MEL5c ell lines; type: functional
[7] = In vitro toxicity against ras transformed 3LL cell lines was determined; type: cell-based; conditions: ras transformed 3LL cells; read-out: LC50 (the source's name)
[8] = In vitro toxicity against ras transformed H/1.2-NRK cell lines was determined; conditions: rat, ras transformed H/1.2-NRK cells; read-out: LC50 (the source's name)
[9] = In vitro toxicity against ras transformed K/1-NRK cell lines was determined; conditions: rat, ras transformed K/1-NRK cells; read-out: LC50 (the source's name)
[10] = In vitro toxicity against ras transformed NRKE cell lines was determined; type: cell-based; conditions: rat, NRKE cells; read-out: LC50 (the source's name)
[11] = Total number of toxic deaths of mice to the total number of mice tested was determined at a dose of 10 mg/kg; 0/8; type: ADME, organism-based; set-up: dose 10 mg/kg; conditions: mouse, in vivo
[12] = Total number of toxic deaths of mice to the total number of mice tested was determined at a dose of 3 mg/kg; 0/8; type: ADME, organism-based; set-up: dose 3 mg/kg; conditions: mouse, in vivo
[13] = (§1) Ratio of LC50(NRKE) to LC50(H/1.2-NRK) expressed as differential induces(DI) was determined; type: functional
[14] = (§2) Ratio of LC50(NRKE) to LC50(N/4.2-NRK ) expressed as differential induces(DI) was determined; type: functional
[15] = In vitro toxicity against ras transformed N/4.2-NRK cell lines was determined; conditions: rat, ras transformed N/4.2-NRK cells; read-out: LC50 (the source's name)
[16] = system: HT-29; assay: In vitro cytotoxicity in human tumor colon adenocarcinoma HT-29 cell lines; type: functional
[17] = system: Mus musculus; assay: In vivo inhibitory activity against HT-29 colon cells at maximally tolerated dose(MTD) of 33 mg/kg in mice; type: functional
[18] = Total number of toxic deaths of mice to the total number of mice tested was determined at a dose of 100 mg/kg; 1/8; type: ADME, organism-based; set-up: dose 100 mg/kg; conditions: mouse, in vivo
[19] = Total number of toxic deaths of mice to the total number of mice tested was determined at a dose of 33 mg/kg; 0/8; type: ADME, organism-based; set-up: dose 33 mg/kg; conditions: mouse, in vivo
[20] = Ratio of LC50(NRKE) to LC50(K/1-NRK) expressed as differential induces(DI) was determined; type: functional
[21] = Ratio of LC50(NRKE) to LC50(3LL) expressed as differential induces(DI) was determined; type: functional
[22] = system: Mus musculus; assay: In vivo inhibitory activity against HT-29 colon cells at maximally tolerated dose(MTD) of 100 mg/kg in mice; type: functional
[23] = system: Mus musculus; assay: In vivo inhibitory activity against HT-29 colon cells at maximally tolerated dose(MTD) of 11 mg/kg in mice; type: functional
[24] = Total number of toxic deaths of mice to the total number of mice tested was determined at a dose of 11 mg/kg; 0/8; type: ADME, organism-based; set-up: dose 11 mg/kg; conditions: mouse, in vivo
[25] = as §1; type: ADME; conditions: rat, NRKE cells and H/1.2-NRK cells
[26] = as §2; type: ADME; conditions: rat, NRKE cells and N/4.2-NRK cells

Structure (SMILES) | ED50 [1] [M l-1] | ED50 [2] [M l-1] | ED50 [3] | ED50 [6] [M l-1] | CC50 [7] [nM] | CC50 [8] [nM] | CC50 [9] [nM] | CC50 [10] [nM] | CC50 [15] [nM] | further results
C=C(CN1COC2CCC(C(C)(C)C)CC21)S(C)(=O)=O (stereo not given) | 1.2e-06 | 2.4e-07 | 1e-06 M l-1 | 9.6e-07 | 500 | 2100 | 500 | 1400 | 1800 | inhibition in vivo at 3 mg/kg [4]: 0%; inhibition in vivo at 10 mg/kg [5]: 0%; Toxic deaths [11]: 0; Toxic deaths [12]: 0; Ratio [13]: 0.6; Ratio [14]: 0.8
C=C(CCl)S(C)(=O)=O | 1.9e-05 | 6.5e-06 | 6.5e-06 M l-1 | 3.2e-06 | – | – | – | – | – | ED50 [16]: 2.2e-06 M l-1
C=C(CNC1CC(C(C)(C)C)CCC1O)S(C)(=O)=O (stereo not given) | 6.7e-07 | 4.7e-07 | 6e-07 M l-1 | 1.9e-07 | – | – | – | – | – | –
C=C(CN1C(=O)OC2CCC(C(C)(C)C)CC21)S(C)(=O)=O (stereo not given) | 2.9e-05 | 2.7e-06 | 1.1e-05 M l-1 | 1.3e-06 | 3100 | 4700 | 2600 | 4400 | 5000 | inhibition in vivo at 33 mg/kg [17]: 0%; Toxic deaths [18]: 1; Toxic deaths [19]: 0; Ratio [13]: 0.9; Ratio [20]: 1.7; Ratio [14]: 0.9; Ratio [21]: 1.4; inhibition in vivo at 100 mg/kg [22]: 0%
C=C(CN(C)C1CC(C(C)(C)C)CCC1O)S(C)(=O)=O (stereo not given) | 1.4e-05 | 1.7e-07 | 4.8e-07 M l-1 | 5.6e-07 | – | – | – | – | – | –
CC(C)(C)C1CCC(O)C(N)C1 (stereo not given) | 0.00016 | 0.00026 | > 100000 nM | 0.00045 | – | – | – | – | – | ED50 [16]: > 100000 nM
C=C(CN(CC(=C)S(C)(=O)=O)C1CC(C(C)(C)C)CCC1O)S(C)(=O)=O (stereo not given) | 1.3e-06 | 3.3e-07 | 4.2e-06 M l-1 | 4.6e-07 | 800 | 2500 | 600 | 2400 | 1400 | inhibition in vivo at 11 mg/kg [23]: 0%; inhibition in vivo at 33 mg/kg [17]: 0%; Toxic deaths [24]: 0; Toxic deaths [19]: 0; selectivity ratio [25]: 1; selectivity ratio [26]: 0.6

Source: ChEMBL document CHEMBL1127922, “Synthesis and pharmacological evaluation of vinyl sulfone based anticancer agents” (Bioorg Med Chem Lett, 1994)
